Numbering of substitutions follows the chain as printed. pIC50: −log10 of the molar value.
Assays:
[1] = target: T1, E487K variant of human ALDH2 (Homo sapiens, UniProt P05091, E504K); test: Enzymatic activity of histidine-tagged E487K ALDH2 variant (NAD+ to NADH, acetaldehyde substrate); assay type: biochemical; conditions: over control (without activator compound) activity; n=3
T1 construct: made in house; host or cells: E. coli
T1 sequence (P05091 18-517 E504K): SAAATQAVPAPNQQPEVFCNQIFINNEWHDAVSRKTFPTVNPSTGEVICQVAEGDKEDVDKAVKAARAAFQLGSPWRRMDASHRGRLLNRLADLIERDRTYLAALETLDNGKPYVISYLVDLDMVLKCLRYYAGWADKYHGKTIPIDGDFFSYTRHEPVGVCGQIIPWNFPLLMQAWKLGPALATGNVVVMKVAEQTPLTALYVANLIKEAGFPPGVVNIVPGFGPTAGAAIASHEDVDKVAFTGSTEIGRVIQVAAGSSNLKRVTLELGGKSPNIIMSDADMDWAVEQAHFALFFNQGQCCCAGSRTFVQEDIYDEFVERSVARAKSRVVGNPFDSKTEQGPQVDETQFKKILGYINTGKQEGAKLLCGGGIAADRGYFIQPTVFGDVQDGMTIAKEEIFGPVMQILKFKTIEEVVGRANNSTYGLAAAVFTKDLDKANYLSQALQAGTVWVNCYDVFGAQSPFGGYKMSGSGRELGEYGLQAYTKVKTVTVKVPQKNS
Experimental: (§1) Compounds were screened using a method as depicted schematically in FIG. 2. Essentially, the reaction is carried out at 25° C. in 0.1 NaPPi buffer, pH 9.5, 2.4 mM NAD^+ and 10 mM acetaldehyde as the substrate. Enzymatic activity is measured by a reductive reaction of NAD^+ to NADH at 340 nm. Alternatively, the production of NADH can be coupled with another enzymatic reaction that consumes NADH and that provides for a detectable signal. An example of such an enzymatic reaction is a diaphorase-based reaction, which reduces resazurin to its […] fluorescent compound resorufin.
For example, a 120 μl reaction mixture for ALDH2 enzymatic activity comprises the following components:
43 μl 150 mM sodium pyrophosphate (NaPPi) buffer, pH 9.0;
15 μl 80 mM acetaldehyde;
1 μl of resazurin (0.2 mg/ml in H2O);
1 μl of diaphorase (1 unit, e.g., from Clostridium kluyveri);
2 μl of variant ALDH2 (e.g., 2 μl of variant ALDH2 at (0.5-2 μg/μl); and
28 μl of a solution comprising an agent to be tested, which agent has been resuspended in an appropriate solvent (e.g., an aqueous solution, DMSO, and the like).
Fluorescent detection of the above-described reaction as described in Table 1:
A fusion protein that includes the E487K variant of human ALDH2 (see amino acid sequence depicted in FIG. 1B) and a poly-histidine tag was synthesized and used in screens for ALDH2 agonists. An expression construct that encodes the […] variant fused in-frame to a poly-histidine (His) tag was introduced into E. coli, and expression was induced by the addition of isopropyl-1-thio-3-D-galactoside (IPTG); and His-tagged E487K ALDH2 variant was produced. The His-tagged E487K ALDH2 variant was purified from E. coli extract using a metal ion affinity column to bind the His-tagged E487K ALDH2 variant. His-tagged E487K ALDH2 variant was eluted from the column and used in screening assays to identify ALDH2 agonists.

"wild-type" ALDH2 enzyme = target: T2, "wild-type" ALDH2 enzyme (Homo sapiens, UniProt P05091); test: Screen and inhibition assay with wild-type ALDH2 enzyme; assay type: biochemical
T2 sequence (P05091 18-517): T1 sequence (P05091 18-517 E504K) with K487E
Experimental: as §1
Compounds were screened, as described above, but using the “wild-type” ALDH2 enzyme. Of 63,000 compounds screened, six inhibitors were identified. Three of the compounds, referred to in FIGS. 8, 9, and 10 as #062923, #046072, and #032208, respectively, were assayed for their effect on ALDH2 enzymatic activity.

ALDH2*2 mutant enzyme = target: T3, ALDH2*2 mutant enzyme (Homo sapiens, UniProt P05091, E504K); test: ALDH2 enzymatic assay, ALDH2*2 recombinant enzyme; assay type: biochemical; conditions: range of 10-200 μM
T3 sequence (P05091 18-517 E504K): T1 sequence (P05091 18-517 E504K)
Experimental: (§2) BDDB derivative compounds, XO43 and XO44 as depicted in FIG. 12, were synthesized and tested in ALDH2 enzymatic assays. […] Enzymatic activity was measured by a reductive reaction of NAD^+ to NADH at 340 nm, as described in US 2005/0171043; and WO 2005/057213. […] (FIG. 12: n=3 for both right and left panels.)

ALDH2*1 wild type enzyme = target: T4, ALDH2*1 wild type enzyme (Homo sapiens, UniProt P05091); test: ALDH2 enzymatic assay, ALDH2*1 recombinant enzyme; assay type: biochemical; conditions: for increase in activity of ALDH2*1 wild type enzyme: at the higher concentration (range 10-200 μM), n=3; for ALDH2 activation, dose dependence: range of 10-200 μM
T4 sequence (P05091 18-517): T1 sequence (P05091 18-517 E504K) with K487E
Experimental: as §2

rat hearts = test: Ex vivo Langendorff model of myocardial infarction (no-flow ischemia and reperfusion); conditions: ex vivo rat heart
Experimental: Ex vivo Langendorff preparations of rat hearts were used as a model to assess the damage incurred by no-flow ischemia and reperfusion injury. This is an experimental model that mimics the clinical situation of myocardial infarction in patients. Rat hearts were excised and cannulated on a Langendorff apparatus via the aorta. Retrograde perfusion was carried out using the standard oxygenated Kreb-Hensleit buffer maintained at 37° C. All hearts were stabilized by an initial 5- to 10-minute perfusion period followed by delivery of different cardioprotective agents or AldDH2 inhibitors for 10-30 minutes, depending on the reagent. Reagents used in some of the representative experiments including ethanol (50 mM), EPKC isozyme-selective activator and inhibitor peptides (1 μM), cyanamide (5 mM) and nitroglycerin (2 μM). […]
The degree of ischemia/reperfusion damage was measured by two independent commonly accepted parameters. […] In another assay, creatine phosphate kinase activity was measured from reperfusate of each heart collected during reperfusion. […] Homogenates from each heart was also obtained from a separate section of the identical sample and analyzed for aldehyde dehydrogenase enzymatic activity. Enzymatic activity was determined by a standard spectrophotometric method described above using acetaldehyde as the substrate and NAD^+ as a cofactor.

Male Wistar rats = test: In vivo LAD coronary artery ligation ischemia/reperfusion model; parameters: species or system rat; conditions: 8.5 mg/kg into the left ventricle five minutes before LAD ligation, p<0.01
Experimental: Male Wistar rats (250-300 g) were anesthetized by 3% isoflurane. The surgical procedures used for left anterior descending coronary artery (LAD) ligation are based on published protocols Animals were intubated, and ventilated with a Harvard rodent ventilator at a rate of 80 breaths per minute (5-15 mm Hg). Maintenance anesthesia was provided via 1% inhalational isoflurane, and body temperature was maintained at 37° C. using a rectal probe linked to a thermocoupled thermometer and an appropriate heating blanket. The heart was exposed by median sternotomy. Following a 20-minute period of stabilization, a ligature was placed around the LAD coronary artery, close to its origin from the aortic root. The ends of the ligature were passed through polyethylene tubing forming a small noose in which a syringe plunger was rested upon the myocardial surface. Coronary occlusion was achieved by pressing the tubing against the plunger while pulling on the ligature followed by clamping the tubing with a hemostat. Occlusion was determined by observation of immediate pallor of the left ventricular free wall. Reflow was achieved by release of the ligature. […]
At the end of reperfusion, hearts were excised and flushed with 0.9% saline. […] Serum was separated by centrifugation at 5000 g for 5 minutes on a tabletop centrifuge and creatine phosphate kinase (CPK) values were determined.

SMILES: O=C(NCc1ccc2c(c1)OCO2)c1ccccc1Br [Compound 3, N-(1,3-benzodioxol-5-ylmethyl)-2-bromobenzamide]
- increase of enzymatic activity of the E487K ALDH2 variant over control [1]: ~600%

SMILES: COc1ccc(C(=O)CCN(C)C)cc1F [#062923]
- pIC50 ("wild-type" ALDH2 enzyme): 6.20

SMILES: O=C(NCc1ccc2c(c1)OCO2)c1c(Cl)cccc1Cl [Compound 1, N-(1,3-benzodioxol-5-ylmethyl)-2,6-dichlorobenzamide]
- increase of enzymatic activity of the E487K ALDH2 variant over control [1]: approximately 900%
- ALDH2 activation, dose dependence (ALDH2*2 mutant enzyme): dosage dependent effect
- increase in activity of ALDH2*1 wild type enzyme (ALDH2*1 wild type enzyme): about 180%
- ALDH2 activation, dose dependence (ALDH2*1 wild type enzyme): dosage dependent effect
- infarct size (rat hearts; ischemia-reperfusion, control 57.7±5.4%, p<0.05, n=7): 41.6±4.1%
- CPK release (rat hearts; reperfusate, control 5530±329, P<0.05, n=8): 4396 Units/Liter
- decrease of CPK release (Male Wistar rats; rat blood): about 57%
- decrease of the extent of myocardial infarction (Male Wistar rats; rat): about 60%

SMILES: O=C(NCc1ccc2c(c1)OCO2)c1ccccc1I [Compound 4, N-(1,3-benzodioxol-5-ylmethyl)-2-iodobenzamide]
- increase of enzymatic activity of the E487K ALDH2 variant over control [1]: ~700%

SMILES: O=C(NCc1ccc2c(c1)OCO2)c1c(F)cccc1F [Compound 2, N-(1,3-benzodioxol-5-ylmethyl)-2,6-difluorobenzamide]
- increase of enzymatic activity of the E487K ALDH2 variant over control [1]: approximately 300%

SMILES: O=C(Nc1nc2c(Cl)c(Cl)ccc2s1)c1cccnc1 [#032208]
- pIC50 ("wild-type" ALDH2 enzyme): 5.79

SMILES: Cc1cccc(C)c1C(=O)NCc1ccc2c(c1)OCO2 [XO44]
- ALDH2 activation, dose dependence (ALDH2*2 mutant enzyme): dosage dependent effect
- increase in activity of ALDH2*1 wild type enzyme (ALDH2*1 wild type enzyme): about 180%
- ALDH2 activation, dose dependence (ALDH2*1 wild type enzyme): dosage dependent effect

SMILES: CCc1ccc(C(=O)CCN(C)C)cc1 [#046072]
- pIC50 ("wild-type" ALDH2 enzyme): 5.94

SMILES: O=C(NCc1ccc2c(c1)OCO2)c1c(Cl)cncc1Cl [XO43]
- ALDH2 activation, dose dependence (ALDH2*2 mutant enzyme): dosage dependent effect
- increase in activity of ALDH2*1 wild type enzyme (ALDH2*1 wild type enzyme): about 180%
- ALDH2 activation, dose dependence (ALDH2*1 wild type enzyme): dosage dependent effect
